Results published in patent US8394788B2, “Phenylsulfoxyoxazole compound inhibitors of urea transporters” (The Regents of the University of California, priority 2006, dated 2013).

Legend:
RBCs from wild-type mice = test: Osmotic water permeability, RBCs from wild-type mice (stopped-flow); assay type: cell-based, mouse; settings: 10° C., 250-mM sucrose gradient
Protocol: (§1) RBC urea and water permeabilities were assayed by stopped-flow light scattering using a Hi-Tech Sf-51 instrument (Wiltshire, UK). For measurement of urea permeability, dilutions of whole blood (human or mouse; see Example 1) in PBS (hematocrit: approximately 0.5%) were incubated with test compounds for 5 min and then subjected to a 250-mM inwardly directed gradient of urea. After an initial osmotic shrinking phase, the kinetics of increasing cell volume caused by urea influx were measured as the time-course of 90° scattered light intensity at 530 nm, with increasing cell volume resulting in reduced scattered light intensity. As a positive control, 0.7 mM phloretin was added to the RBC suspension prior to stopped-flow experiments. Measurements of water permeability were carried out similarly, with sucrose (cell-impermeant) used instead of urea to establish a 250-mM osmotic gradient. As a positive control, HgCl2 (0.3 mM) was added to the RBC suspension prior to stopped-flow measurements. Osmotic water permeability coefficients (Pf) were computed from light scattering data as described (van Hoek et al., J Biol. Chem. 267:18267-69 (1992)).
This example describes chemical knock-out of UT-B by UT-B inhibitors in RBCs and the effect on UT-B-facilitated water transport. […] Osmotic water permeability was measured by stopped-flow light scattering in RBCs from wild-type and AQP1-null mice as shown in FIG. 8A. […] AQP1-null RBCs had greater than 5-fold reduced Pf compared to wild-type RBCs.

mouse UT-B = target: T1, mouse UT-B (Mus musculus, UniProt Q8VHL0); test: Stopped-flow light scattering, mouse RBCs (N-methylurea gradient); assay type: cell-based
T1 construct: the indicator cells are red blood cells that endogenously express the UT-B urea transporter; endogenous in cells; host or cells: mouse red blood cells (CD1 background; wild-type for A4, AQP1-null for A10)
T1 sequence (Q8VHL0 1-384): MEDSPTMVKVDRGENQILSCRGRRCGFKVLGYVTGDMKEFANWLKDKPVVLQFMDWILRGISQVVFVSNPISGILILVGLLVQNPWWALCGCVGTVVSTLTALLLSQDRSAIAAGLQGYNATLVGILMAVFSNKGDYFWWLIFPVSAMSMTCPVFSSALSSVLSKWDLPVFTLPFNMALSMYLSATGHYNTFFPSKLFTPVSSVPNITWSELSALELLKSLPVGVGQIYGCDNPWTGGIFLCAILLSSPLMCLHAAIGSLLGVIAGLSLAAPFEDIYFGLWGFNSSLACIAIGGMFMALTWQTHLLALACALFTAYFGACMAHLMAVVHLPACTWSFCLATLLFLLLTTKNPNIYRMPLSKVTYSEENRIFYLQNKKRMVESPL
Protocol: as §1, with “(1992)). […]” for “(1992)).”

UT-B [1] = target: T2, UT-B (Mus musculus, UniProt Q8VHL0); test: Osmotic water permeability, AQP1-null mouse RBCs (UT-B-facilitated water transport); assay type: cell-based; settings: 10° C., 250-mM sucrose gradient
T2 construct: the indicator cells are red blood cells that endogenously express the UT-B urea transporter; endogenous in cells; host or cells: mouse red blood cells (CD1 background; wild-type for A4, AQP1-null for A10)
T2 sequence (Q8VHL0 1-384): T1 sequence (Q8VHL0 1-384)
Protocol: as §1, with “Osmotic water permeability coefficients (Pf) were computed from light scattering data as described (van Hoek et al., J Biol. Chem. 267:18267-69 (1992)).” left out
This example describes chemical knock-out of UT-B by UT-B inhibitors in RBCs and the effect on UT-B-facilitated water transport. […] Osmotic water permeability was measured by stopped-flow light scattering in RBCs from wild-type and AQP1-null mice as shown in FIG. 8A. […]

UT-B [2] = target: T3, UT-B (Homo sapiens, UniProt Q13336); test: Stopped-flow light scattering, urea permeability of human RBCs; assay type: cell-based; design: a red blood cell (i.e., erythrocyte), which endogenously expresses the urea transporter UT-B; endogenous in cells; host or cells: human red blood cells (whole blood, single donor); settings: for inhibition of urea transport, inhibitor only in urea-containing solution (sidedness): external exposure at time of stopped-flow, 0.1 μM ureainh-101, 0.2 μM ureainh-302; for reversibility of inhibition after washing RBCs: washed after 10 min incubation
T3 sequence (Q13336 1-389): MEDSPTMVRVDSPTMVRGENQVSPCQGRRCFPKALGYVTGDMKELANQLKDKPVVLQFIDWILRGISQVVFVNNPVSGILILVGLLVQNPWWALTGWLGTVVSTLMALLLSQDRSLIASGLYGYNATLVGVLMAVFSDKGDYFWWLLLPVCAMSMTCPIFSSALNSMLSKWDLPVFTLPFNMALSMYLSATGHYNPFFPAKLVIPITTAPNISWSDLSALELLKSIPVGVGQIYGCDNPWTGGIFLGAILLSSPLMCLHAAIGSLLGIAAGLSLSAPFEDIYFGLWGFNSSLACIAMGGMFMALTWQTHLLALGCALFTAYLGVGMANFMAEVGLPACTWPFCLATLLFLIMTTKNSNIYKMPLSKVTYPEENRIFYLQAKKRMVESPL
Protocol: as §1
After repeating the 96-well plate RBC lysis assay to confirm compound activity (see Example 2), bona fide urea transport inhibition was determined by stopped-flow light scattering from the kinetics of urea influx (RBC swelling) in response to an inwardly directed urea gradient. Rapid mixing of an RBC suspension with a hyperosmolar solution containing excess 250 mM urea produced rapid cell shrinking due to osmotic water efflux, followed by cell swelling as urea (and water) influx occurred.
To determine EC50 values for urea transport inhibition directly, RBC urea transport was measured by stopped-flow light scattering using a non-saturating concentration of extracellular urea (to avoid possible competition effects). EC50 for inhibition of RBC urea transport was determined independently by comparing stopped-flow light scattering curves to a model of cell shrinking-swelling.
For stopped-flow experiments, a 100-mM gradient of urea (for human RBCs) or N-methylurea (for mouse RBCs) was used to minimize competition effects (apparent urea and N-methylurea affinities at 23° C. are approximately 200 and approximately 100 mM, respectively) (Mayrand et al., J Gen Physiol. 81:221-37 (1983)). N-methylurea, with greater than 2-fold slower RBC permeability than urea, was used in mouse studies to better resolve overlapping water and urea transport kinetics. Dose-response data were also collected for human RBCs using a high concentration of 1 M urea to distinguish between competitive vs. non-competitive inhibitor binding.
The two coupled differential equations describing water efflux and solute influx in response to externally added urea or methylurea were numerically integrated using the forward Euler method (Δt=0.01 s) to reproduce the biphasic changes in cell volume observed experimentally. Computations that were performed using the smaller time step (Δt=0.001 s) gave similar results, confirming the adequacy of the 0.01 s time step. Water flux, Jv (in cm^3/s), across erythrocyte membranes is represented by the following equation: Jv=−Pf·S·vw·[(Ie−Ic(i))+(Ue−Uc(i))]; solute flux, Js (in mol/s), is represented by the following equation: Ps·S·(Ue−Uc(i)). Permeability coefficients (Pf and Ps) are expressed in units of cm/s, cell surface area (S) in cm^2, extracellular (e) and cellular (c) concentrations of impermeant (I) and urea/methylurea (U) solute in mol/cm^3, and vw is […]. Initial conditions were Ie=Ic(0)=2.9×10^−4 mol/cm^3, Ue=10^−4 mol/cm^3, and Uc(0)=0. […]

| Structure (SMILES) | effect on water transport in RBCs from wild-type mice (RBCs from wild-type mice) | inhibitory potencies against mouse UT-B (mouse UT-B) | effect on water permeability in AQP1-null RBCs (UT-B [1]) | inhibition at 0.1 µM (UT-B [2]; 10 min pre-incubation, 0.1 μM ureainh-101, 0.4 μM ureainh-302, read-out: transport inhibition after pre-incubation) | inhibition of urea transport, inhibitor only in urea-containing solution (sidedness) (UT-B [2]) | reversibility of inhibition after washing RBCs (UT-B [2]) | concentration dependence of inhibition of urea permeability by externally added inhibitor (UT-B [2]; externally added, 0.05-0.2 μM) |
| --- | --- | --- | --- | --- | --- | --- | --- |
| NC(=O)CSc1oc(-c2ccccc2)nc1S(=O)(=O)c1ccc(Br)cc1 [ureainh-101, 2-(4-(4-bromophenylsulfonyl)-2-phenyloxazol-5-ylthio)acetamide] | little effect | good inhibitory potencies | further inhibited water permeability | > 95% | did not inhibit urea transport | fully reversible inhibition |  |
| Cc1ccc(Nc2nnc(-c3ccc(C(N)=O)cc3)c3ccccc23)cc1 [ureainh-302] | little effect | good inhibitory potencies | further inhibited water permeability |  | sizable effect | fully reversible inhibition | concentration-dependent |
